Assays:
[1] = test system: hearts isolated from rabbits; assay: Cardioprotective effects on isolated rabbit hearts subjected to regional ischaemia and reinfusion; parameters: left ventricular pressure, percentage of preischaemic recovery / contracture during reinfusion / maximum and minimum dP/dt values and double frequency-pressure product: dose or concentration left out as unconfirmed
Method: Study of the Cardioprotective Effects
The cardioprotective effects were studied on hearts isolated from rabbits subjected to a regional ischaemia and to a reinfusion. The size of infarction as well as the recovery of the contractile function upon reinfusion were measured.
New Zealand rabbits (2.3 to 2.5 kg, ESD France) are anaesthetized with a ketamine-xylasine mixture and heparinized. The heart is removed and rapidly infused by the retrograde aortic route at a pressure of 75 mmHg with a Krebs Henselheit-type solution. A balloon is introduced into the left ventricle and a telediastolic pressure of 5 mmHg is applied. After a stabilizing period of 20 min, the compound to be studied (1 mM) or the vehicle is added to the infusion solution 15 min before the ischaemia and during the entire duration of the experiment. The regional ischaemia is created by complete ligation of the left coronary artery for 30 min, the heart then being reinfused for 2 h.
The ventricular pressure, heart rate and coronary output parameters are monitored during the whole experiment.
After the reinfusion, the coronary artery is again occluded and China ink is infused in order to delimit the area at risk. Transverse sections are then prepared and incubated in a 1% triphenyltetrazolium solution so as to measure the size of the infarction. The quantification of the necrosed area, expressed as % of the area at risk, is obtained by means of image-analysing software.

[2] = test system: kidneys (renal ischaemia-reinfusion); assay: Renoprotective effects, renal artery occlusion-reinfusion in rats; type: in vivo, rat; details: 3 mg/kg i.p. 60 min before the occlusion
Method: Study of the Renoprotective Effects
The experiment is carried out on Sprague-Dawley male rats (Charles River France) of 270 to 330 g. The animals are anaesthetized with pentobarbital (60 mg/kg i.p.), intubated and artificially ventilated, their temperature is maintained between 37 and 38° C.
A 3 cm laparotomy is performed on the animal in dorsal decubitus, the right and left renal arteries are exposed and occluded for 30 min, and then the kidneys are reinfused under visual monitoring and the incision is closed. The serum creatinine and urea nitrogen levels are determined from blood samples collected in the orbital sinus, at D0 (before anaesthesia), and then at D1, D2, D3, D4, D8 (after 1 occlusion-reinfusion).
The compound to be studied, or its vehicle (Tween 80 at 2%) is administered at the dose of 3 mg/kg by the i.p. route 60 min before the occlusion.

[3] = test system: motoneurons of the facial nucleus; assay: Survival of the motoneurons after cutting of the facial nerve in 4-day-old rats; type: in vivo, rat; details: 7 d treatment, i.p. route
Method: Test of Survival of the Motoneurons After Cutting of the Facial Nerve in 4-day-old Rats
After lesioning of the facial nerve in immature rats, the motoneurons of the facial nucleus undergo neuronal death by apoptosis. The evaluation of neuronal survival is carried out using histological and neuronal counting methods.
4-Day-old immature rats are anaesthetized with pentobarbital (3 mg/kg by the i.p. route). The right facial nerve is exposed and cut, where it leaves the stylomastoid foramen. After regaining consciousness, the young rats are returned to their mothers and treated, for 7 d, by one or two daily administrations, by the oral or intraperitoneal route, at doses ranging from 1 to 10 mg/kg. 7 d after the lesioning, the animals are decapitated and the brains frozen in isopentane at −40° C. The facial nucleus is cut using a cryostat, into 10 μm sections, in its entirety. The motoneurons are stained with cresyl violet and counted with the aid of the Histo™ software (Biocom™).

For `CN(C)C(=O)Cc1nn(-c2ccccc2)c(=O)c2c1c1ccc(Cl)cc1n2C` [Compound No. 1, 7-Chloro-N,N,5-trimethyl-4-oxo-3-phenyl-3,5-dihydro-4H-pyridazino[4,5-b]indole-1-acetamide], the contracture during reinfusion [1] was “reduces the contracture”, the “left ventricular pressure, percentage of preischaemic recovery” value ([1]; after 2 h of reinfusion) was 65% and the “size of the infarction (necrosed area, expressed as % of the area at risk)” value ([1]; compound 1 mM in infusion solution, 30 min ischaemia, 2 h reinfusion) was 22±3.3 % of the area at risk. The “reduction in the size of the infarction” value ([1]; compound 1 mM in infusion solution, 30 min ischaemia, 2 h reinfusion, vs controls, p<0.01) was 47%, the “maximum and minimum dP/dt values and double frequency-pressure product” value ([1]; during reinfusion) was “significantly restores” and the “reduction of creatininaemia compared with the vehicle” value ([2]; at D3) was 56%. For the same molecule, the “reduction of uraemia compared with the vehicle” value ([2]; at D3) was 49%, the “mortality in the animals” value ([2]; dead/total animals) was 1/12 and the “increase in neuronal survival” value [3] was 31%.

Reference: patent US6395729B1, “Use of pyridazino[4,5-b]indole-1-acetamide derivatives for preparing medicines for treating diseases related to the dysfunction of peripheral benzodiazepin receptors” (Sanofi-Synthelabo, priority 1999, dated 2002)
